The values that follow come from PMC7967160, “Synthesis and Antiviral Evaluation of (1,4-Disubstituted-1,2,3-Triazol)-(E)-2-Methyl-but-2-Enyl Nucleoside Phosphonate Prodrugs” (Molecules, 2021).

Series [1] relates to human hepatitis C virus (HCV). Also on record: method as in PMID 23911854. The note with it: at 10 μM; cited from earlier work.
The next series deals with CEM cells. On the set-up: method as in PMID 23911854. The note with it: cited from earlier work.
For another series, the system named is hepatitis B virus (HBV). Kind of series: Anti-HBV activity of compound 6 (unpublished data). The format is cell-based. The note with it: read-out: EC50 (HBV).
Series [2] can be described thus: in vitro.
Series [3] has as its system HBV. Description: HBV assay in Huh7 cells transfected with pCI_HBVpg1820, intracapsid viral DNA by real-time PCR. Type of series: cell-based, hepatitis B virus (HBV). The note with it: for inhibition at 10 µM: Hepatitis B virus, Huh-7, 96 h. The procedure: In Huh7 cells: antiviral activity against HBV in cell culture was measured as previously described. Briefly, Huh7 cells were transfected with plasmid pCI_HBVpg1820 containing 1.1 unit of HBV genome under the control of a human cytomegalovirus (CMV) promoter. The drugs were stored at 1000× in DMSO at −20 °C. For each experiment, the drugs were diluted in DMEM cell culture medium (Thermo Fisher Scientific, Artenay, France) to a final concentration of 10 μM. All drugs were tested in triplicate in two independent experiments. After 4 days of culture, intracapsid viral DNA was quantified by duplex real-time PCR, using primers described elsewhere, on a LightCycler 480 II apparatus (Roche Diagnostics France, Meylan, France) using TaqMan Universal PCR Mastermix II without UNG (Thermo Fisher Scientific, Artenay, France). Cells were quantified using primers by real-time PCR, using primers HPRT1_F (5′-[…]) and HPRT1_R (5′-[…]), on a LightCycler 480 II apparatus (Roche) using a LightCycler® 480 SYBR Green I Master (Roche Diagnostics France, Meylan, France). Cycling reactions were performed with the following parameters: 5 min at 95 °C, followed by 45 cycles of 10 s at 95 °C, 15 s at 60 °C, 10 s at 72 °C. The inhibition of HBV replication (%) and cell culture viability (%) were quantified using the following formulas. Inhibition of HBV replication (%)=1− HBV DNA copy numberDrug/HBV DNA copy numberCell culture medium Cell viability (%)= HPRT1 DNA copy numberDrug/HPRT1 DNA copy numberCell culture medium
On the technique in general: Real-time PCR tracks product formation cycle by cycle.

Series [4] has as its system HBV. Description: HBV assay in HepAD38 cells, real-time PCR for HBV DNA in supernatant. The format is cell-based. Particulars: Hepatitis B virus, 168 h, 7 days. On the procedure:
In HepAD38 cells were seeded at 50,000 cells/well in collagen-coated 96-well plates. Test compounds or 2′,3′-didéoxy-3′-thiacytidin (3TC) (control) were added to HepAD38 cells to a final concentration of 10 μM.
Real-Time PCR for HBV DNA. The experiment lasted 7 days. On day 7, total DNA was purified from the supernatant using a commercially available kit (DNeasy 96 Blood & Tissue kit, Qiagen). The HBV DNA was amplified in a real-time PCR assay using a LightCycler 480 (Roche) as described elsewhere. All samples were tested in duplicate in two to three independent experiments. Analysis: The concentration of compound that inhibited HBV DNA replication by 50% (EC50) was determined by linear regression.

Another series concerns HIV-1 LAI. Kind of series: HIV assay in human PBM cells infected with HIV-1 LAI, RT quantification. The format is cell-based. Particulars: Human immunodeficiency virus 1, PBMC; 10 μM, PBM cells, HIV-1 LAI. On the procedure: The assay was performed as described by Schinazi et al. with minor modifications. […] The supernatants were harvested, and the HIV-1 RT was quantified.

Series [5] can be described thus: in vitro. Particulars: human; PBM cells; read-out: MTS Cytotoxicity (IC50, μM) PBM. Type of series: cell-based. The procedure: (§1) Assays were performed in human peripheral blood mononuclear (PBM) and human liver (HepG2) cells via MTS assay using the CellTiter 96® Non-Radioactive Cell Proliferation (Promega) kit as previously described^3. Cytotoxicity was expressed as the concentration of test compounds that inhibited cell proliferation by 50% (IC50) and calculated using the Chou and Talalay method.

Series [6] is described as follows: Cytotoxicity MTS assay in HepG2 cells. Type of series: cell-based. Particulars: human. The procedure: as §1
(Formazan colour is commonly taken as a measure of viable cells.)

In series [7] the test system is SARS-CoV-2 strain BavPat1. Kind of series: SARS-CoV-2 assay in Vero E6 cells (CellTiter-Blue). The note with it: 10 μM. (In general: Alamar Blue is a resazurin reagent that responds to reducing activity.)
The nature of series [8]: Cell culture viability in the Huh7 HBV assay (HPRT1 DNA copy number). Particulars: human.
Series [9] in a line: in vitro. The note with it: human.
Where [10] appears, read: 10 μM, Huh7 cells, 4 days, read-out: HBV % Inhibition Huh7.

The term EC50 denotes the concentration giving half of the maximal effect. Broadly, the inhibition is the relative decrease from the control value, in per cent. The term IC50 denotes the midpoint of a concentration-inhibition curve. One may read the viability as the share of living cells, or the viability signal relative to a control. A higher viability goes with better survival.

“And” between values parts separate entries of the source, which are not always exact repeats. Equal values may be shown once.

In the case of `CCCc1ccc(-c2cn(C/C=C/CP(=O)(OCOC(=O)C(C)(C)C)OCOC(=O)C(C)(C)C)nn2)cc1` [Compound 5], the “% of inhibition (HCV)” value in series [1] is 95.6% and 95%. For the same compound, the CC50 in the series on CEM cells is 55.3 µM.
In the case of `C/C(=C\CP(=O)(OCOC(=O)OC(C)C)OCOC(=O)OC(C)C)Cn1cnc2c(O)nc(N)nc21` [Compound 6, bis(POC)-(E)-2-methyl-but-2-enylguanine], the 50% effective concentration (EC50) with hepatitis B virus (HBV) was 8.5 µM. Also, the CC50 in “in vitro [2]” was > 100 µM.
With `C/C(=C\CP(=O)(OCOC(=O)OC(C)C)OCOC(=O)OC(C)C)Cn1cc(C(N)=O)nn1` [Compound 11j, [[(E)-4-(4-Carbamoyltriazol-1-yl)-3-methyl-but-2-enyl]-(isopropoxycarbonyloxymethoxy)phosphoryl]oxymethyl isopropyl carbonate], the “HBV % Inhibition Huh7” value in the series with HBV [3] (10 μM, Huh7 cells, 4 days) stood at 40%. In addition, the inhibition at 10 µM was > 40% in the series on HBV [3] (read-out: HBV % Inhibition Huh7, 10 μM, Huh7 cells, 4 days); 31.3% in the series on HBV [4]; < 1% in the series on HIV-1 LAI. For the same compound, the IC50 in the series “in vitro [5]” was 76.8 µM; in series [6], > 100 µM. In addition, the “SARS-CoV-2 % Inhibition Vero E6” value in series [7] was <1%. Also, the viability at 4 days, 10 µM in series [8] came out at 100%.
With `CNC(=O)c1cn(C/C(C)=C/CP(=O)(OCOC(=O)OC(C)C)OCOC(=O)OC(C)C)nn1` [Compound 11p, [[(E)-4-(4-Methylcarbamoyltriazol-1-yl)-3-methyl-but-2-enyl]-(isopropoxycarbonyloxymethoxy)phosphoryl]oxymethyl isopropyl carbonate], the values for the inhibition at 10 µM with HBV [3] (setting [10]), in the series on HBV [4] and in the series with HIV-1 LAI were 14%, < 1% and 36.4%, respectively. Also, the IC50 was 78.3 µM in the series “in vitro [5]” and > 100 µM in series [6]. In addition, in [7], the “SARS-CoV-2 % Inhibition Vero E6” value is recorded as <1%. Besides, in series [8], the viability at 4 days, 10 µM worked out at 54%.
Regarding `CCCCCCCCCCCCCCCCOCCCOP(=O)(C/C=C(\C)Cn1cc(C(N)=O)nn1)OCOC(=O)OC(C)C` (stereo not drawn) [Compound 15j, [[(E)-4-(4-Carbamoyltriazol-1-yl)-3-methyl-but-2-enyl]-(3-hexadecyloxypropoxy)phosphoryl]oxymethyl isopropyl carbonate], the inhibition at 10 µM with HBV [3] (setting [10]) is 62%; with HBV [4], < 1%; in the series on HIV-1 LAI it was 32.2%. For the same compound, the IC50 in the series “in vitro [5]” came to 43.1 µM; in series [6], 66.4 µM. Moreover, the “SARS-CoV-2 % Inhibition Vero E6” value in [7] was <1%. In series [8], this compound had a viability at 4 days, 10 µM of 74%.
In the case of `C=C1[C@H](CO)[C@@H](O)C[C@@H]1n1cnc2c(=O)[nH]c(N)nc21` [Entecavir, reference compound], the inhibition at 10 µM in the series on HBV [3] (setting [10]) is 92%. Moreover, the viability at 4 days, 10 µM in the series “in vitro [9]” turned out to be 96%.
For the compound `CCOC(=O)c1cn(C/C(C)=C/CP(=O)(OCOC(=O)OC(C)C)OCOC(=O)OC(C)C)nn1` [Compound 11o, Ethyl-1-[(E)-4-[bis(isopropoxycarbonyloxymethoxy)phosphoryl]-2-methyl-but-2-enyl]triazole-4-carboxylate], the inhibition at 10 µM in the series with HBV [3] (setting [10]) is < 1%; with HBV [4] it was 41.2%; with HIV-1 LAI, 22.4%. Further, the results for the IC50 (in the series “in vitro [5]”; in series [6]) were 67.5 µM and > 100 µM, respectively. In addition, the “SARS-CoV-2 % Inhibition Vero E6” value in series [7] is given as <1%. Further, the viability at 4 days, 10 µM in [8] amounted to 60%.
With `C/C(=C\CP(=O)(OCOC(=O)OC(C)C)OCOC(=O)OC(C)C)Cn1cc(C(C)(C)C)nn1` [Compound 11g, [[(E)-4-(4-tert-Butyltriazol-1-yl)-3-methyl-but-2-enyl]-(isopropoxycarbonyloxymethoxy)phosphoryl]oxymethyl isopropyl carbonate], the inhibition at 10 µM came out at 10% in the series on HBV [3] (setting [10]), 17.3% in the series on HBV [4] and 12.3% with HIV-1 LAI. Further, the values for the IC50 (in “in vitro [5]”; in [6]) were 28.3 µM and > 100 µM, respectively. Further, the “SARS-CoV-2 % Inhibition Vero E6” value in series [7] is on record as <1%. The compound further displayed a viability at 4 days, 10 µM in series [8] of 79%.
